The values below come from paper PMC3478282, “Probing the Putative Active Site of YjdL: An Unusual Proton-Coupled Oligopeptide Transporter from E. coli” (PLoS ONE, 2012).

Holding throughout (assay type): cell-based, E. coli
One experiment concerns the target T1, YdgR Tyr292Ala (Escherichia coli, UniProt P77304, Y292A).
T1 construct: host or cells: E. coli BL21(DE3)pLysS
In words: β-Ala-Lys(AMCA) uptake and inhibition assay, YdgR Tyr292Ala. On the procedure:
(§1) Plasmids were transformed into E. coli BL21(DE3)pLysS cells by heat shock and transformants were selected on agar plates containing 100 µg/mL ampicillin and 34 µg/mL chloramphenicol. Single transformants were inoculated into 2 mL LB-media with antibiotics as above and grown overnight. The cultures were diluted 1∶50 in 5 mL LB-media with antibiotics as above, and at an OD600 of 0.5–0.8 protein expression was induced by the addition of 1 mM isopropyl β-D-1-thiogalactopyranoside (IPTG). The cells were harvested after three hours of induction by centrifugation and resuspended in uptake buffer (50 mM MES pH 6.5, 140 mM NaCl, 5.4 mM KCl, 1.8 mM CaCl2, 0.8 mM MgSO4, and 5 mM glucose).
Uptake assays were performed as previously described, [20]. In a final assay volume of 100 µL; 0.2 mM β-Ala-Lys-N-7-amino-4-methylcoumarin-3-acetic acid (β-Ala-Lys(AMCA), Biotrend) (10 µL) and various concentrations of ligands (purchased from Bachem or Sigma-Aldrich) or uptake buffer (50 µL) were incubated with bacterial cell suspension (OD600 = 10, 40 µL) at 37°C. […] Finally the cell pellet was resuspended in 100 µL uptake buffer, and the uptake was quantified by fluorescence measurements (excitation at 340 nm and emission at 460 nm) on a Safire 2 fluorimeter. Non-specific uptake was measured as described above on IPTG-induced E. coli BL21(DE3)pLysS cells harboring the empty pTTQ18 vector. […]

The next experiment has as its target T2, YjdL Tyr21Phe (Escherichia coli, UniProt P39276, Y21F).
T2 construct: expressed in transfected cells; host or cells: E. coli BL21(DE3)pLysS, pTTQ18-yjdL mutant (QuikChange)
T2 sequence (P39276 1-485 Y21F): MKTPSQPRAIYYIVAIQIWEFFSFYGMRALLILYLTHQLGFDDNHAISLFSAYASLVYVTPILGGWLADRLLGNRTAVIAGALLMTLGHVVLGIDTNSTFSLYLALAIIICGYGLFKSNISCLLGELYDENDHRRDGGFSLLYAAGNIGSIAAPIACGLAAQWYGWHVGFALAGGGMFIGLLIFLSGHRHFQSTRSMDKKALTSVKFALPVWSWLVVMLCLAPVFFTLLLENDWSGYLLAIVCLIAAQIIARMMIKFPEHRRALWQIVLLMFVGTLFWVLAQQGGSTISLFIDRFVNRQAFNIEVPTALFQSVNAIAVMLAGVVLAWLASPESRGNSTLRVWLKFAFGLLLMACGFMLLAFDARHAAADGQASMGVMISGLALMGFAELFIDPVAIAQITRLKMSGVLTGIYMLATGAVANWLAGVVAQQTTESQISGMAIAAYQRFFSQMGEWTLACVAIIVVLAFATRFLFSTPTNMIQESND
Nature of the experiment: β-Ala-Lys(AMCA) uptake and inhibition assay, YjdL Tyr21Phe. The settings on record: 0.2 mM β-Ala-Lys(AMCA), 5 min incubation, pH 6.5; ±SEM, n≥3. On the procedure: as §1
(§2) Uptake assays were performed as previously described, [20]. In a final assay volume of 100 µL; 0.2 mM β-Ala-Lys-N-7-amino-4-methylcoumarin-3-acetic acid (β-Ala-Lys(AMCA), Biotrend) (10 µL) and various concentrations of ligands (purchased from Bachem or Sigma-Aldrich) or uptake buffer (50 µL) were incubated with bacterial cell suspension (OD600 = 10, 40 µL) at 37°C. After 5 min, the uptake was stopped by addition of 500 µL ice-cold uptake buffer followed by immediate centrifugation and washing twice in ice-cold uptake buffer. Finally the cell pellet was resuspended in 100 µL uptake buffer, and the uptake was quantified by fluorescence measurements (excitation at 340 nm and emission at 460 nm) on a Safire 2 fluorimeter. Non-specific uptake was measured as described above on IPTG-induced E. coli BL21(DE3)pLysS cells harboring the empty pTTQ18 vector. All uptake assay experiments were reproduced at least three times independently and data analyses were performed using GraphPad Prism ver. 5.

For another experiment, the target named is T3, YjdL Ala281Phe (Escherichia coli, UniProt P39276, A281F).
T3 construct: host or cells: E. coli BL21(DE3)pLysS
T3 sequence (P39276 1-485 A281F): T2 sequence (P39276 1-485 Y21F) with F21Y, A281F
Nature of the experiment: β-Ala-Lys(AMCA) uptake and inhibition assay, YjdL Ala281Phe. The conditions noted are these: for IC50: 0.2 mM β-Ala-Lys(AMCA), 5 min incubation, pH 6.5, ±SEM, n≥3. On the procedure: as §1, §2

Another experiment deals with T4, YjdL Tyr25Phe (Escherichia coli, UniProt P39276, Y25F).
T4 construct: expressed in transfected cells; host or cells: E. coli BL21(DE3)pLysS, pTTQ18-yjdL mutant (QuikChange)
T4 sequence (P39276 1-485 Y25F): T2 sequence (P39276 1-485 Y21F) with F21Y, Y25F
In words: β-Ala-Lys(AMCA) uptake and inhibition assay, YjdL Tyr25Phe. The conditions noted are these: for IC50: 0.2 mM β-Ala-Lys(AMCA), 5 min incubation, pH 6.5, ±SEM, n≥3. On the procedure: as §1, §2

In the next experiment the target is T5, YjdL Tyr113Phe (Escherichia coli, UniProt P39276, Y113F).
T5 construct: expressed in transfected cells; host or cells: E. coli BL21(DE3)pLysS, pTTQ18-yjdL mutant (QuikChange)
T5 sequence (P39276 1-485 Y113F): T2 sequence (P39276 1-485 Y21F) with F21Y, Y113F
Nature of the experiment: β-Ala-Lys(AMCA) uptake and inhibition assay, YjdL Tyr113Phe. The settings on record: for IC50: 0.2 mM β-Ala-Lys(AMCA), 5 min incubation, pH 6.5, ±SEM, n≥3. On the procedure:
as §1, §2

Setting [1] is: 0.2 mM, 5 min, pH 6.5 (Figure 3).

Numbering of substitutions follows the chain as printed. Residues, ends and D or L forms follow the SMILES beside them. A value given as a limit tells only on which side of the number the result lay.

T1 sequence (P77304 whole entry Y292A): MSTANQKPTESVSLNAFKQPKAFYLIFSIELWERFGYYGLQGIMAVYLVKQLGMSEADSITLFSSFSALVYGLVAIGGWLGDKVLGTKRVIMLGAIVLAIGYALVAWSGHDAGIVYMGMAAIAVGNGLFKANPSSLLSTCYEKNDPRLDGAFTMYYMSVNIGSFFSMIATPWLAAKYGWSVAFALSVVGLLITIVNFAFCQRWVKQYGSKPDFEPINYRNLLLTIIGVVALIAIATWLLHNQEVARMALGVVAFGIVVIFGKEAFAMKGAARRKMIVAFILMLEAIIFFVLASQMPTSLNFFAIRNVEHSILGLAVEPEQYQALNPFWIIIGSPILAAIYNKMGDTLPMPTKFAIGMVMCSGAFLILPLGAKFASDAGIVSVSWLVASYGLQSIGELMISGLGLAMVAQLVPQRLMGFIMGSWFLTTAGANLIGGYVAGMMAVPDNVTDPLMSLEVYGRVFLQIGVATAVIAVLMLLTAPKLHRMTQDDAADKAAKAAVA

One may read the IC50 as the midpoint of a concentration-inhibition curve. For the compound `C[C@H](N)C(=O)N[C@@H](C)C(=O)O` [Ala-Ala] (H-Ala-Ala-OH), the IC50 was 0.59 ± 0.05 mM on YdgR Tyr292Ala (0.2 mM β-Ala-Lys(AMCA), 5 min incubation, pH 6.5, ±SEM, n≥3); 4.5 ± 0.3 mM on YjdL Tyr21Phe; above 50 mM against YjdL Ala281Phe; above 50 mM against YjdL Tyr25Phe; 1.9 ± 0.1 mM on YjdL Tyr113Phe.

Regarding `C[C@H](N)C(=O)N[C@@H](CCCCN)C(=O)O` [Ala-Lys] (H-Ala-Lys-OH), the IC50 was 0.45 ± 0.07 mM at YjdL Tyr21Phe, 0.26 ± 0.02 mM at YjdL Ala281Phe, 0.4 ± 0.08 mM on YjdL Tyr25Phe and 0.34 ± 0.04 mM at YjdL Tyr113Phe.

In the case of `C[C@H](NC(=O)[C@@H](N)Cc1ccc(O)cc1)C(=O)O` [Tyr-Ala], the IC50 against YjdL Tyr21Phe came out at 4.7 ± 0.8 mM; against YjdL Ala281Phe, 33.2 ± 3.4 mM; on YjdL Tyr25Phe it was 33.7 ± 3.9 mM; at YjdL Tyr113Phe, 1.3 ± 0.3 mM.

With “β-Ala-Lys-N-7-amino-4-methylcoumarin-3-acetic acid [β-Ala-Lys(AMCA)]”, the “increase of β-Ala-Lys(AMCA) uptake, YdgR Tyr292Ala” value on YdgR Tyr292Ala (0.2 mM, 5 min, pH 6.5 (Figure 4)) was around 4 fold. Besides, the “increase of β-Ala-Lys(AMCA) uptake compared to WT-YjdL, Ala281Phe” value at YjdL Ala281Phe (setting [1]) is listed as around 3 fold. Moreover, at YjdL Tyr25Phe (setting [1]), the “β-Ala-Lys(AMCA) uptake level, YjdL Tyr25Phe” value is listed as 27%. The “increase of β-Ala-Lys(AMCA) uptake, YjdL Tyr113Phe” value on YjdL Tyr113Phe (setting [1]) is given as around 2 fold.
